# Source: ChEMBL document CHEMBL1201862, “PubChem BioAssay data set” (2004)
# Active and inactive are the calls of the source.
# Key:
# Streptokinase A = molecular target: T1, Streptokinase A (Streptococcus pyogenes serotype M1, UniProt P10520); experiment: S. pyogenes streptokinase expression inhibitors, potency, dose response, plasminogen activation absorbance, OD405 (AID 1914); format: functional, Streptococcus pyogenes M1 GAS;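 note: secreted streptokinase activity via plasminogen activation per viability signal from cell pellet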
# T1 sequence (P10520 whole entry): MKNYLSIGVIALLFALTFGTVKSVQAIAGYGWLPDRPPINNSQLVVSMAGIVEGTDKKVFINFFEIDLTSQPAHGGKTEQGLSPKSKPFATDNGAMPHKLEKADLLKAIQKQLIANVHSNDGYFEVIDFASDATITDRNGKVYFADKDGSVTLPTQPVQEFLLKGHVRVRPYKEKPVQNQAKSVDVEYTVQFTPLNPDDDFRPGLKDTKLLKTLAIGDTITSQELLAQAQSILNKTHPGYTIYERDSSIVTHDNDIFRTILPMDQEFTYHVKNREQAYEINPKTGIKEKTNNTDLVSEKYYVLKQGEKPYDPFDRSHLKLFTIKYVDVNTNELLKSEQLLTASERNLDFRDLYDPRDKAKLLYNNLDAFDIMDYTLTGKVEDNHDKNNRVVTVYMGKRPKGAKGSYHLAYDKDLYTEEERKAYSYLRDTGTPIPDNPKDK
# [1] = inhibitors of clade B AD8 Env fusion, dose response, cell-based, cherry-pick (AID 652062); format: functional;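 note: luciferase signal from cell-cell fusion driven by HIV-1 clade B AD8 Env; potency is for inhibitors of fusion seen as a drop in luminescence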
# Streptococcus = experiment: Group A Streptococcus viability loss, dose response, counter-screen for streptokinase expression inhibitor project, luminescence, BacTiterGlo (AID 1915); format: functional, organism-based;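 note: potency for reduction of bacterial viability or growth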
# [2] = test system: Streptococcus sp. 'group A'; experiment: growth inhibition of control SK(-) GAS strain, dose response, counter-screen for streptokinase expression inhibitor project, luminescence, kanamycin, BacTiterGlo, confirmation (AID 1900); format: functional, organism-based
# [3] = off-target signal loss in HeLa-CEM21 co-culture – HeLa F-luc CTL cells, cherry-picked, counter-screen for HIV-1 Env fusion inhibitor project, dose response (AID 652040); format: functional, cell-based;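 note: potency for signal decrease marking cytotoxic or nonspecific inhibition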
# [4] = molecular target: Voltage-dependent T-type calcium channel subunit alpha-1H (Homo sapiens, UniProt O95180); format: functional;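 note: channel activity triggered by adding a high calcium stimulation buffer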
# Sequence of Voltage-dependent T-type calcium channel subunit alpha-1H (O95180 whole entry): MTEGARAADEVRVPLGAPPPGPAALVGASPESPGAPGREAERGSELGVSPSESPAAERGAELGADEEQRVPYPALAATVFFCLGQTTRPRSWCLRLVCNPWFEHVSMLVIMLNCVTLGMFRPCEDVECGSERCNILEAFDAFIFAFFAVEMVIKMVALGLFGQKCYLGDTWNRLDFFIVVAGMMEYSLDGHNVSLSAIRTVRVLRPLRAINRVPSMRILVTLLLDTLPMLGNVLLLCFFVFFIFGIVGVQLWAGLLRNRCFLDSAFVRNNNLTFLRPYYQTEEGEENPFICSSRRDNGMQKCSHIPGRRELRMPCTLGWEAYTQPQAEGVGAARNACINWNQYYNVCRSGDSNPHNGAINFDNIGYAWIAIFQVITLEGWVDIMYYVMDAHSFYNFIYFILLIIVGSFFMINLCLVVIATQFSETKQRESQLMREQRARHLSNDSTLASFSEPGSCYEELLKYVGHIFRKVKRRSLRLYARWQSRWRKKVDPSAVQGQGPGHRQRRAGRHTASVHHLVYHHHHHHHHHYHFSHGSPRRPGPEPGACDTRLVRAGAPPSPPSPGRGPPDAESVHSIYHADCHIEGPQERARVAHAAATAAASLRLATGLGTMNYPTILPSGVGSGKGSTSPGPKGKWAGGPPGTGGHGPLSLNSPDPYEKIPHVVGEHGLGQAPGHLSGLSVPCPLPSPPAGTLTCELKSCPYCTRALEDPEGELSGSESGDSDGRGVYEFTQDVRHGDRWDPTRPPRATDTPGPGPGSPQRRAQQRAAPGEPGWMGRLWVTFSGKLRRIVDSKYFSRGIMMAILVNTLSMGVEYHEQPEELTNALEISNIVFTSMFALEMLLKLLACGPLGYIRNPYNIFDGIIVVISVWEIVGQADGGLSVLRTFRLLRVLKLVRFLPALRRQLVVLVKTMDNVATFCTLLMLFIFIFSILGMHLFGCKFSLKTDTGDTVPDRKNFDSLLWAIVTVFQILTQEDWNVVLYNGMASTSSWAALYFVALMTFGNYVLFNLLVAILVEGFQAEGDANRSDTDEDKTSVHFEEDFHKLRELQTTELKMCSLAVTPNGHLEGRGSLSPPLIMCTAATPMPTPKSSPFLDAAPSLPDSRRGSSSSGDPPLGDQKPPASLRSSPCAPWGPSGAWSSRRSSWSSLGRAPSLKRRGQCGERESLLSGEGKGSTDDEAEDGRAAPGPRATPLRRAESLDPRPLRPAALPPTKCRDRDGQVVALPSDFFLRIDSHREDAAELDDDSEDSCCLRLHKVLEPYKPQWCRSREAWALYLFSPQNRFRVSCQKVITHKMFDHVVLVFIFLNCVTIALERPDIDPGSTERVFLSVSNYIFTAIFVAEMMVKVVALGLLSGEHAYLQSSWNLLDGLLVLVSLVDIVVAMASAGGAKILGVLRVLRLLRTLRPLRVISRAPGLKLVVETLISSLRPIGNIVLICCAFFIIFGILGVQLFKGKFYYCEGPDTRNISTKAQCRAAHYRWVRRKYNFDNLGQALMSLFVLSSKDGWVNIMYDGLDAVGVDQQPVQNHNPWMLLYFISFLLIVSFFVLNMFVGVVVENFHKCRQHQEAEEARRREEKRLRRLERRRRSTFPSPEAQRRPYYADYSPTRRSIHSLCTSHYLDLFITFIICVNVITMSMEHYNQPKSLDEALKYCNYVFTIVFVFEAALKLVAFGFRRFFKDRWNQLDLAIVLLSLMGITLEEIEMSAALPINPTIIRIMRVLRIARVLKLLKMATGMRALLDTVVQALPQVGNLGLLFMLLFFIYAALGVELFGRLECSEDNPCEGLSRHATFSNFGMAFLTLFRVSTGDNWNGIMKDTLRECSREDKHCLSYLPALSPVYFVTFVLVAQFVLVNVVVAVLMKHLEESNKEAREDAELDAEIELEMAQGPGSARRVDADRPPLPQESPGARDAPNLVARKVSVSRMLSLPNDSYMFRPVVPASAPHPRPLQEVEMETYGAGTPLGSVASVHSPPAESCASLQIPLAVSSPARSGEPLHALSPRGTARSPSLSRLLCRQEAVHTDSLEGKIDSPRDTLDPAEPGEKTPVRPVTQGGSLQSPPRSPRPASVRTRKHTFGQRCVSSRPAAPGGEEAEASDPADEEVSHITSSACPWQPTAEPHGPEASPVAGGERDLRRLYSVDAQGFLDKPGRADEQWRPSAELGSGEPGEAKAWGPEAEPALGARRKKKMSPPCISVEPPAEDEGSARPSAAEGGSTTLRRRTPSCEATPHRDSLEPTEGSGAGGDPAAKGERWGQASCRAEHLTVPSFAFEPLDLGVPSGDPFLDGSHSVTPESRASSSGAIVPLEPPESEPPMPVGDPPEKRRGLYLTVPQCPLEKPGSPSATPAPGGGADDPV
# [5] = molecular target: T2, Endoribonuclease toxin MazF (Escherichia coli K-12, UniProt P0AE70); experiment: fluorescent RNA oligo signal without MazF, dose response, counter-screen for MazEF activator project, biochemical, fluorescence, single-stranded RNase substrate (AID 588502); format: functional
# T2 sequence (P0AE70 whole entry): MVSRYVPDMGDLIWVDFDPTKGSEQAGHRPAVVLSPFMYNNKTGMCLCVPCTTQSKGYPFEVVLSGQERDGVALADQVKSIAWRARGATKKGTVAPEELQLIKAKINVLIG
# [6] = molecular target: T2, Endoribonuclease toxin MazF; experiment: MazF toxin RNase activators, dose response, biochemical, fluorescence, single-stranded RNA substrate, uHTS hits (AID 588481); format: functional
# [7] = inhibitors of HIV Env-driven cell fusion, dose response, cherry-pick (AID 652057); format: functional, cell-based
# [8] = ZM109 Env clade C HIV-1 fusion inhibitors, dose response, HeLa effector, CEM target cells, luciferase, cherry-pick (AID 652058); format: functional, cell-based
# Vero = experiment: cells; format: functional; conditions: Chlorocebus sabaeus
# [9] = molecular target: DNA dC->dU-editing enzyme APOBEC-3G (Homo sapiens, UniProt Q9HC16); format: functional;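 note: Dose-response counterscreen measuring inhibition of APOBEC3G DNA deaminase activity, run while confirming APOBEC3A inhibitors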
# [10] = molecular target: DNA dC->dU-editing enzyme APOBEC-3A (Homo sapiens, UniProt P31941); experiment: Dose Response confirmation of small molecule APOBEC3A DNA Deaminase Inhibitors via a fluorescence-based single-stranded DNA deaminase assay. [Related pubchem assays (depositor defined):AID493011, AID493024]; format: functional
# Sequence of DNA dC->dU-editing enzyme APOBEC-3A (P31941 whole entry): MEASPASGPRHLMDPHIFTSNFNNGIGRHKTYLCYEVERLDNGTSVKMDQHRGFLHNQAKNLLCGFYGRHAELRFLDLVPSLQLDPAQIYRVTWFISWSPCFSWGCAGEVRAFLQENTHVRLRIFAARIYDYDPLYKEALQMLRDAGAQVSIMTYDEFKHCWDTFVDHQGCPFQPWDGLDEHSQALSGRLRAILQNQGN
# [11] = molecular target: Peroxisome proliferator-activated receptor gamma/Nuclear receptor coactivator 2 (Homo sapiens, UniProt P37231); experiment: (§1) TR-FRET dose response biochemical High Throughput Screening assay for agonists of the steroid receptor coactivator 2 (SRC-2) recruitment by the peroxisome proliferator-activated receptor gamma (PPAR gamma): non-selective agonists. [Related pubchem assays: 1297, 1032 ]; format: functional
# [12] = molecular target: Peroxisome proliferator-activated receptor gamma/Nuclear receptor coactivator 1 (Homo sapiens, UniProt P37231); experiment: as §1, with “1 (SRC-1)” for “2 (SRC-2)”, “assays (depositor defined):AID1300, AID1808, AID504735, AID631]” for “assays: 1297, 1032 ]”; format: protein assay
# Sequence of Peroxisome proliferator-activated receptor gamma/Nuclear receptor coactivator 1 (P37231 whole entry): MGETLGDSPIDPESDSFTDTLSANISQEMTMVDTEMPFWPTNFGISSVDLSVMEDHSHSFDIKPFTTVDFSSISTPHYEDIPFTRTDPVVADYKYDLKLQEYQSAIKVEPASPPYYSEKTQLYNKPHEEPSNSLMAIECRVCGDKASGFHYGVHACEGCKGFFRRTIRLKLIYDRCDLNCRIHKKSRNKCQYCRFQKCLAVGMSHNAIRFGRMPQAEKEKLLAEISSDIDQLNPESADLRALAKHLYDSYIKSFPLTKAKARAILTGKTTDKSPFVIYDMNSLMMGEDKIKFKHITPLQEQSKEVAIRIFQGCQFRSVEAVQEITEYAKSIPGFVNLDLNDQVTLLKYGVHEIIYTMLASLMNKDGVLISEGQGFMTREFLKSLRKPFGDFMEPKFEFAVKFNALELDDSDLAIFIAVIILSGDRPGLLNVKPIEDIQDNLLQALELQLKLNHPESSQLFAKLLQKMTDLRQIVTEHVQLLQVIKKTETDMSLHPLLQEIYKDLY
# Sequence of Peroxisome proliferator-activated receptor gamma/Nuclear receptor coactivator 1 (Q15788 whole entry, further chain): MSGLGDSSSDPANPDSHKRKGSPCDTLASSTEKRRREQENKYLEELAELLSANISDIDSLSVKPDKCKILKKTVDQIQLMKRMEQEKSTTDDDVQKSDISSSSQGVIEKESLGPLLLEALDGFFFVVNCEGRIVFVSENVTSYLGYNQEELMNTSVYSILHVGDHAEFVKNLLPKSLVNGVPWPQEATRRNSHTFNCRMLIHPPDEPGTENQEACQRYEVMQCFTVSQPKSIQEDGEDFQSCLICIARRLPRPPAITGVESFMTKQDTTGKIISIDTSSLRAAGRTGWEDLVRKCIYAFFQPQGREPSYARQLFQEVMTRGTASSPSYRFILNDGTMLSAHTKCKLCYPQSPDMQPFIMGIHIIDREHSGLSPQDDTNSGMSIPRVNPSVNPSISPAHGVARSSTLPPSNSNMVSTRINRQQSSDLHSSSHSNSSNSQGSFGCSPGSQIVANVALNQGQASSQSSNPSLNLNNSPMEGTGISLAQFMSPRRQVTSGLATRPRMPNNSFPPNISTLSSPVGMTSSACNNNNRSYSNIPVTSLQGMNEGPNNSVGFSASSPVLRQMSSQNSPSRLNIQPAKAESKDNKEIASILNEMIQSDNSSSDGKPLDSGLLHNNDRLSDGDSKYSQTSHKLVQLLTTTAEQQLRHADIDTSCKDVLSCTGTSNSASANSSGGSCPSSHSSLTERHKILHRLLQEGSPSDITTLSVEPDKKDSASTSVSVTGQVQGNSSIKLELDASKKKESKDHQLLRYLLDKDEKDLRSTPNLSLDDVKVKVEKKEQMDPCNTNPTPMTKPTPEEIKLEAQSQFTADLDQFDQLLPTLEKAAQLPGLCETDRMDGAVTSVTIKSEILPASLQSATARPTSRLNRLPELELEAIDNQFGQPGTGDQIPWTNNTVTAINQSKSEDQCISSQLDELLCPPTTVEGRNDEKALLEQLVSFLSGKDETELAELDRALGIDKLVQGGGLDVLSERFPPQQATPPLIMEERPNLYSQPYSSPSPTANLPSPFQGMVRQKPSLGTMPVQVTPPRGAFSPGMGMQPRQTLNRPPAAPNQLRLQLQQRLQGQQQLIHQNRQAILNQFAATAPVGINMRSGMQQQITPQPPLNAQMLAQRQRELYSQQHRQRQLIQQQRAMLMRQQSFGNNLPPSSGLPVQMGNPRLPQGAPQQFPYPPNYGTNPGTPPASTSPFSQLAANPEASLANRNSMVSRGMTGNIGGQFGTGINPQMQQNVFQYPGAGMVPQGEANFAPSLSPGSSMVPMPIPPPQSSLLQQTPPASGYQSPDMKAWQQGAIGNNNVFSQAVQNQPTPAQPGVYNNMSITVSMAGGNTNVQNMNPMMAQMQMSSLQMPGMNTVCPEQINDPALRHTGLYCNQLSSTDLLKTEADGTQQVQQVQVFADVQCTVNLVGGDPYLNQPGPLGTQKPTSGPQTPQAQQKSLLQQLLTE
# [13] = molecular target: Peroxisome proliferator-activated receptor gamma/Nuclear receptor coactivator 3 (Homo sapiens, UniProt P37231); experiment: as §1, with “3 (SRC-3)” for “2 (SRC-2)”, “1301 (Confirmation screen.), 1048 (Primary screen.)]” for “1297, 1032 ]”; format: functional
# [14] = molecular target: T3, Calpain-2 catalytic subunit (Sus scrofa, UniProt P43367); experiment: pig calpain II inhibitor potency, dose response, biochemical, fluorogenic peptide substrate (AID 1420); format: functional
# T3 sequence (P43367 whole entry): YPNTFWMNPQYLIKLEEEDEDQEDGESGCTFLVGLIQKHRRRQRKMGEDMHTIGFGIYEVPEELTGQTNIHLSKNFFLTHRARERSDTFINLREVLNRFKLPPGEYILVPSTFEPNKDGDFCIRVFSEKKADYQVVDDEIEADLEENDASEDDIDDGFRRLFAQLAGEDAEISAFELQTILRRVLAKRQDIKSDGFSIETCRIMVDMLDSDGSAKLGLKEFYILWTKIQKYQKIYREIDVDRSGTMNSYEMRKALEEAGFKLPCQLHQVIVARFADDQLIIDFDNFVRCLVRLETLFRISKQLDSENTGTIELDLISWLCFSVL
# Paired box protein Pax-8 = Paired box protein Pax-8 (Homo sapiens, UniProt Q06710); experiment: inhibitors of PAX8-driven TPO luciferase reporter, dose response, RMG-I cells, cherry-pick (AID 687027); format: functional, cell-based;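 note: luciferase reporter driven by Pax8 target thyroperoxidase promoter measured by SteadyGlo luminescence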
# Sequence of Paired box protein Pax-8 (Q06710 whole entry): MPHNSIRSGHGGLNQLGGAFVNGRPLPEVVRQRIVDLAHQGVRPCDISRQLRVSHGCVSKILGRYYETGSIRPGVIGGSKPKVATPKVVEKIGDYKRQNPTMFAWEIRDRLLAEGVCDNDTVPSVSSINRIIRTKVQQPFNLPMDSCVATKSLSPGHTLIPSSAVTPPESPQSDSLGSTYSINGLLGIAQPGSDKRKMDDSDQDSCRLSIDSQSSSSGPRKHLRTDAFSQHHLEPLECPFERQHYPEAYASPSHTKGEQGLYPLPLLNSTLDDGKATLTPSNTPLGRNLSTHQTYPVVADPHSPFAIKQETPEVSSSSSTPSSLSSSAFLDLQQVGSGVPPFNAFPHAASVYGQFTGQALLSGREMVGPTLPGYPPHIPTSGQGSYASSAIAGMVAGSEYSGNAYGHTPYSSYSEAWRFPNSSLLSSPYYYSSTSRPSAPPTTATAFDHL
structure (smiles),measurement,setting,value
O=C(Nc1ccc(N2CCN(C(=O)c3ccccc3)CC2)c(Cl)c1)c1cccnc1,EC50,Streptokinase A,> 150 µM (not active)
same,AC50,[1],12.6 µM (active)
same,EC50,Streptococcus,14.7 µM (active)
same,EC50,[2],12.4 µM (active)
same,AC50,[3],20.5 µM (active)
O=C(Nc1nnc(-c2ccc3c(c2)CCCC3)o1)C1COc2ccccc2O1 (configuration not stated),EC50,[4],1.37 µM (active)
CN(C)c1ccc(C=C2C=Cc3ccccc32)cc1,EC50,[5],20.7 µM (inactive)
same,EC50,[6],> 99 µM (inactive)
Cc1ccc2cc(C#N)c(NCCNC(=O)C3CC3)nc2c1C,AC50,[1],6.25 µM (active)
same,AC50,[7],4.5 µM (active)
same,AC50,[8],4.47 µM (active)
same,AC50,[3],2.96 µM (active)
Cc1ccc(C)c(CS(=O)(=O)c2cn(CC(=O)N3CCC(C)CC3)c3ccccc23)c1,AC50,[1],2.04 µM (active)
same,AC50,[7],2.82 µM (active)
same,AC50,[8],3.03 µM (active)
same,AC50,[3],3.13 µM (active)
COc1ccc(C(=O)CC(SCC(NC(C)=O)C(=O)O)c2ccc(Cl)cc2)cc1OC (configuration not stated),CC50,Vero,22.4 µM (active)
CC(C)(C)c1ccc(OCCC(=O)Nc2cccc(S(=O)(=O)N3CCOCC3)c2)cc1,AC50,[1],53.1 µM (active)
same,AC50,[7],22.2 µM (active)
same,AC50,[3],48.2 µM (active)
COc1ccc2[nH]c(O)c(N=O)c2c1,IC50,[9],4.41 µM (active)
same,IC50,[10],2.64 µM (active)
N#Cc1cc2c(nc1SCc1ccccc1)CCCCC2,EC50,[11],12.7 µM (not active)
same,EC50,[12],> 8.82 µM (inactive)
same,EC50,[13],> 79.4 µM (not active)
COc1cc(/C=N/NS(=O)(=O)c2ccc(C)cc2)ccc1OCc1ccc(C(=O)O)cc1,IC50,[14],> 50 µM (not active)
same,AC50,[1],8.31 µM (active)
same,AC50,[7],2.5 µM (active)
same,AC50,[8],16.1 µM (active)
same,AC50,Paired box protein Pax-8,23.9 µM (active)
same,AC50,[3],3.18 µM (active)
COc1cccc(OCC(O)CN2CCC(Cc3ccccc3)CC2)c1 (configuration not stated),EC50,[4],4.62 µM (active)
